Some test systems named below: DU-145 prostate; OVCAR-3 ovarian; PC-3 prostate; A498 renal; HT29 colon; IGROV1 ovarian; UACC-62 melanoma; LOX IMVI melanoma; OVCAR-5 ovarian; HCC-2998 colon.
Assay in all cases: inhibition of tumour cell growth, NCI panel, 48 h

Molecules are shown by their SMILES.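 Where inhibition never reached the appropriate level, the endpoint shown equals the highest concentration tested. Otherwise, values were interpolated linearly from a five-concentration, 48-hour dose response in 96-well plates. TGI denotes the concentration required for complete inhibition of growth.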

Regarding `Cc1ccc(C(=O)Nc2ccc(S(=O)(=O)O)c3cc(S(=O)(=O)O)cc(S(=O)(=O)O)c23)cc1NC(=O)c1cccc(NC(=O)Nc2cccc(C(=O)Nc3cc(C(=O)Nc4ccc(S(=O)(=O)O)c5cc(S(=O)(=O)O)cc(S(=O)(=O)O)c45)ccc3C)c2)c1` (tested in a mixture with another compound), the TGI with DU-145 prostate, in the assay on OVCAR-3 ovarian, in the assay with PC-3 prostate, in the assay with A498 renal, in the assay on HT29 colon and in the assay on IGROV1 ovarian was more than 50 µM throughout. Besides, the TGI in the assay on UACC-62 melanoma, in the assay on LOX IMVI melanoma, with OVCAR-5 ovarian and with HCC-2998 colon was more than 50 µM each time.

For the molecule `O=C1ON=C2C3CC4CC12CC1(C3)C(=O)ON=C41`, the TGI in the assay with DU-145 prostate, in the assay on OVCAR-3 ovarian, in the assay on PC-3 prostate, in the assay with A498 renal, in the assay with HT29 colon and with IGROV1 ovarian was more than 100 µM in each case. The TGI in the assay with UACC-62 melanoma, in the assay with LOX IMVI melanoma, with OVCAR-5 ovarian and in the assay on HCC-2998 colon was more than 100 µM in each case.

For `c1ccc(N=C2SC3=NCCN3C2=Nc2ccccc2)cc1`, the TGI came out at 28.8 µM with DU-145 prostate; 36 µM with OVCAR-3 ovarian; 60.6 µM in the assay with PC-3 prostate; 36.4 µM with A498 renal; 41.3 µM in the assay on HT29 colon; 22.7 µM with UACC-62 melanoma. The figures for the TGI with OVCAR-5 ovarian and with HCC-2998 colon were 34.9 µM and 52.4 µM, respectively.

As for `O=C(OCc1ccccc1)N1CCN(C(=O)OCc2ccccc2)CCN(C(=O)OCc2ccccc2)CCN(C(=O)OCc2ccccc2)CCN(C(=O)OCc2ccccc2)CC1`, the TGI in the assay with DU-145 prostate, with OVCAR-3 ovarian, in the assay with PC-3 prostate, with A498 renal, in the assay with UACC-62 melanoma and in the assay on LOX IMVI melanoma was more than 100 µM in each case. Moreover, the TGI with OVCAR-5 ovarian and in the assay on HCC-2998 colon was more than 100 µM throughout.

For `O=C1c2ccccc2-c2nc(/C=C/c3ccccc3)cc3c2c1nc1ccccc13`, the TGI was more than 100 µM with DU-145 prostate; 3.95 µM with OVCAR-3 ovarian; more than 100 µM in the assay with PC-3 prostate; more than 100 µM in the assay on A498 renal; 92 µM in the assay on HT29 colon; more than 100 µM in the assay with IGROV1 ovarian. Further, the values for the TGI in the assay with UACC-62 melanoma, in the assay with OVCAR-5 ovarian and in the assay with HCC-2998 colon were 25.7 µM, more than 100 µM and 64.6 µM, respectively.

`CCc1nc2ccc(C(F)(F)F)cc2[nH]c1=O`: the TGI with DU-145 prostate, with OVCAR-3 ovarian, with PC-3 prostate, in the assay on A498 renal, with HT29 colon and in the assay on UACC-62 melanoma was more than 100 µM throughout. Moreover, the TGI with LOX IMVI melanoma, with OVCAR-5 ovarian and with HCC-2998 colon was more than 100 µM each time.

Take `Cc1ccc(S(=O)(=O)NC(=O)NC(Cc2ccc(O)c(O)c2)C(=O)O)cc1` (stereo not given): the TGI in the assay on DU-145 prostate, with OVCAR-3 ovarian, in the assay on PC-3 prostate, with A498 renal, in the assay with HT29 colon and in the assay with IGROV1 ovarian was more than 100 µM in each case. Besides, the TGI with UACC-62 melanoma, in the assay on LOX IMVI melanoma and in the assay with OVCAR-5 ovarian was more than 100 µM each time.

`NC(=O)c1nnsc1NC=O`: the TGI in the assay on DU-145 prostate, with PC-3 prostate, in the assay with A498 renal, in the assay with HT29 colon, in the assay with IGROV1 ovarian and with UACC-62 melanoma was more than 100 µM in each case. In addition, the TGI in the assay with LOX IMVI melanoma, in the assay with OVCAR-5 ovarian and with HCC-2998 colon was more than 100 µM throughout.

`CC(C)OC(=O)[C@@H](O)[C@H](CO)C1=CC([Si](C)(C)c2ccccc2)=CON1`: the TGI with DU-145 prostate, with OVCAR-3 ovarian, in the assay on PC-3 prostate, with A498 renal, in the assay with HT29 colon and with UACC-62 melanoma was more than 100 µM each time. The TGI with LOX IMVI melanoma, in the assay on OVCAR-5 ovarian and in the assay on HCC-2998 colon was more than 100 µM in each case.

As to `COc1cc2c(cc1OCCCC(=O)Nc1cc(C(=O)NCCCN(C)C)n(C)n1)N=CC1CCCN1C2=O` (stereo not given), the TGI in the assay on DU-145 prostate was more than 41.6 µM; with OVCAR-3 ovarian, 74.2 µM; in the assay on PC-3 prostate, 50.4 µM; in the assay with A498 renal, 12.4 µM; in the assay with HT29 colon, 18.2 µM; with IGROV1 ovarian, more than 23.5 µM. The TGI with LOX IMVI melanoma is more than 21.2 µM; in the assay with OVCAR-5 ovarian, more than 26.9 µM; in the assay with HCC-2998 colon it was 28.3 µM.

As for `NC1CC(=O)c2sccc21` (stereo not given), the TGI in the assay with DU-145 prostate, with OVCAR-3 ovarian, in the assay on PC-3 prostate, in the assay on A498 renal, in the assay on HT29 colon and in the assay on IGROV1 ovarian was more than 100 µM throughout. Further, the TGI in the assay on UACC-62 melanoma, in the assay on OVCAR-5 ovarian and with HCC-2998 colon was more than 100 µM each time.

For `c1ccc(C2=NCCc3cc4c(cc32)OCO4)cc1`, the TGI in the assay on DU-145 prostate, in the assay on OVCAR-3 ovarian, in the assay with PC-3 prostate, in the assay on A498 renal, in the assay with IGROV1 ovarian and in the assay with UACC-62 melanoma was more than 100 µM in each case. The TGI in the assay on LOX IMVI melanoma, in the assay with OVCAR-5 ovarian and in the assay on HCC-2998 colon was more than 100 µM in each case.

With `C=CCN(c1cc(OC)c2[nH]cc(C)c2c1[N+](=O)[O-])S(C)(=O)=O`, the TGI in the assay with DU-145 prostate, with OVCAR-3 ovarian, in the assay on PC-3 prostate, with A498 renal, with IGROV1 ovarian and in the assay on UACC-62 melanoma was more than 100 µM throughout. For the same molecule, the TGI with LOX IMVI melanoma, with OVCAR-5 ovarian and in the assay with HCC-2998 colon was more than 100 µM in each case.

Turning to `C=C(C)[C@@H]1CCC2=C[C@H](CC(C)=CC3=CC(C)=C(O3)[C@@H]1OC)OC2=O`, the TGI in the assay with DU-145 prostate, in the assay on OVCAR-3 ovarian, in the assay with PC-3 prostate, in the assay with A498 renal, in the assay on IGROV1 ovarian and with UACC-62 melanoma was more than 100 µM each time. For the same molecule, the TGI with OVCAR-5 ovarian and with HCC-2998 colon was more than 100 µM throughout.

The record behind these values is PubChem BioAssay (NCI).
